Laboratory results published in US11685738B2, “Fluorinated tetrahydronaphthyridinyl nonanoic acid derivatives and uses thereof” (OcuTerra Therapeutics, Inc., priority 2015, dated 2023).

Assays:
[1] = target: αvβ6 (Homo sapiens (Human), UniProt P06756+P18564); test: αVβ6–LAP-TGF β1 integrin binding assay (integrin-coupled beads, flow cytometry); settings: for IC50: ligand LAP TGF-β1; for αvβ8/αvβ6: ratio of αvβ8 IC50 to αvβ6 IC50
Description: (§1) All αV Integrins are known to bind to proteins with a RGD motif. Two RGD ligands were used in this study: Vitronectin (VN) as a ligand for αVβ3 and αVβ5 (Wayner et al., J. Cell Biol., 113 (4), 919-929, 1991), and LAP TGF-β1 (LAP1) as a ligand for αVβ6 and αVβ8 (Rognoni et al., Nat. Med., 20(4): 350-359, 2014). CWHM12 was used as a positive control for αVβ6 and αVβ8 (Henderson et al., Nat. Med. 19(12), 10.1038/nm.3282 2013), and Cilengitide as a positive control for αVβ3 and αVβ5 (Kumar et al., J. Pharmacol. Exp. Ther., 283, 843-853, 1997).
(§2) The integrin coupled Dyna beads were allowed to interact with respective ligands. The integrin-ligand complex was detected with either Primary/Secondary Antibody conjugated with Fluorescein Isothiocyanate (FITC). For αVβ3 and αVβ5, Vitronectin was used as a ligand and a primary antibody conjugated with FITC (Anti-VN-FITC Ab) was used to detect the interaction. For αVβ6 and αVβ8, LAP-TGF (31 was used as ligand and a primary antibody against LAP1 (Anti-LAP1 Ab) and a secondary antibody conjugated with FITC were used to detect the αVβ6/αVβ8-LAP-TGF (31 complex. Fluorescence was measured by Flow Cytometry analysis.
(§3) 5 mg of Dyna beads were weighed in a low protein binding microfuge (Eppendorf) tube (1.5 mL volume). The beads were re-suspended in 1 mL of Sodium Phosphate Buffer and vortexed at high speed for 30 seconds. The tube was then placed in a tube roller and tilt rotated for 10 min. After tilt rotation, the tube was placed on the Magna Spin and the beads were allowed to settle. The supernatant was discarded and the beads were washed three times. The beads were then re-suspended in 100 μL of Sodium Phosphate Buffer and 20 μL of washed beads were distributed into 5 low protein binding Eppendorf tubes (1 mg of beads in each tube). The beads were used for coupling integrins.
(§4) 20 μL of (1 mg) of beads were mixed with 20 μL of integrins (20 μg) and 20 μL of 3 M Ammonium Sulfate solution (final concentration of ammonium sulfate was 1M) to achieve a Bead: Protein ratio of 5 mg:100 μg. The solution was mixed gently and placed in a tube roller and incubated at 37° C. for 16 hours.
(§5) αVβ6/αVβ8 coupled beads were treated with the ligand LAP TGF-β1 (LAP1) at room temperature for 3 hours. The complex (Integrin+Ligand) was then treated with primary Ab (Anti-LAP1 Ab) overnight at 4° C. The whole complex (Integrin+Ligand+Primary Ab) was treated with Secondary Ab conjugated with FITC and incubated for 2 hours. The complex was analyzed by either plate reader or Flow Cytometer.
(§6) 10 μL of αVβ6/αVβ8 coupled beads were taken for the experiment. The concentration of integrins was 10 nM. 10 μL of LAP1 was taken (10 nM for aVβ6 and 20 nM for aVβ8). Reaction between integrin coupled beads and LAP1 was considered as the full reaction, and reaction without LAP1 or a compound of the disclosure was considered as the blank reaction. The samples were incubated in low protein binding tubes at room temperature for 3 hours. The tubes were briefly spun and placed in a Magna spin. The supernatant was removed. The beads were washed with assay buffer twice to remove excess LAP1 and then re-suspended in […] assay buffer containing 1:200 anti-LAP1 Ab (primary Ab). The tubes were placed in a tube roller and incubated at 4° C. overnight. After a brief spin, the tubes were then placed in a Magna spin and the supernatant was removed. The beads were washed with assay buffer twice to remove excess primary Ab and then re-suspended in 150 μL of assay buffer containing 1:500 secondary Ab conjugated with FITC. The tubes were incubated at room temperature for 2 hours in a tube roller. After a brief spin, the tubes were placed in a Magna spin and the supernatant was removed. The beads were washed with assay buffer twice followed by PBS. The beads were then re-suspended in 300 μL of PBS and analyzed by a Flow Cytometer (BD FACSCalibur, Software—BDcell Quest Pro Version 6). […]

[2] = target: αvβ8 (Homo sapiens (Human), UniProt P06756+P26012); test: αVβ8–LAP-TGF β1 integrin binding assay (integrin-coupled beads, flow cytometry); settings: ligand LAP TGF-β1
Description: as §1, §2, §3, §4, §5, §6

[3] = target: αvβ3 (Homo sapiens (Human), UniProt P05106+P06756); test: αVβ3–vitronectin integrin binding assay (integrin-coupled beads, flow cytometry); settings: ligand vitronectin
Description: as §1, §2, §3, §4
αVβ3/αVβ5 coupled beads were treated with the ligand at room temperature for 3 hours. The complex (Integrin+Ligand) was then treated with Anti-Vitronectin Ab conjugated with FITC overnight at 4° C. The complex was analyzed by either plate reader or Flow Cytometer.
10 μL of αVβ3/αVβ5 coupled beads were taken for the experiment. The concentration of integrins was 10 nM. 10 μL of vitronectin was taken. The concentration was 10 nM. Reaction between integrin coupled beads and vitronectin was considered as the full reaction, and reaction without vitronectin or a compound of the disclosure was considered as the blank reaction. The samples were incubated in low protein binding tubes at room temperature for 3 hours. The tubes were briefly spun and placed in a Magna spin. The supernatant was then removed. The beads were washed with assay buffer twice to remove excess vitronectin and then re-suspended in 150 μL of assay buffer containing 1:500 Anti-vitronectin Ab conjugated with FITC. The tubes were placed in a tube roller and incubated at 4° C. overnight. […] The beads were then re-suspended in […] PBS and analyzed by a Flow Cytometer (BD FACSCalibur, Software—BD Cell Quest Pro Version 6).
The samples were acquired using a BD FACSCalibur system and analyzed with BD Cell quest pro Version 6. […] Percentage of binding was calculated with respect to full reaction. […]

Chain of αvβ3 (P06756 31-992): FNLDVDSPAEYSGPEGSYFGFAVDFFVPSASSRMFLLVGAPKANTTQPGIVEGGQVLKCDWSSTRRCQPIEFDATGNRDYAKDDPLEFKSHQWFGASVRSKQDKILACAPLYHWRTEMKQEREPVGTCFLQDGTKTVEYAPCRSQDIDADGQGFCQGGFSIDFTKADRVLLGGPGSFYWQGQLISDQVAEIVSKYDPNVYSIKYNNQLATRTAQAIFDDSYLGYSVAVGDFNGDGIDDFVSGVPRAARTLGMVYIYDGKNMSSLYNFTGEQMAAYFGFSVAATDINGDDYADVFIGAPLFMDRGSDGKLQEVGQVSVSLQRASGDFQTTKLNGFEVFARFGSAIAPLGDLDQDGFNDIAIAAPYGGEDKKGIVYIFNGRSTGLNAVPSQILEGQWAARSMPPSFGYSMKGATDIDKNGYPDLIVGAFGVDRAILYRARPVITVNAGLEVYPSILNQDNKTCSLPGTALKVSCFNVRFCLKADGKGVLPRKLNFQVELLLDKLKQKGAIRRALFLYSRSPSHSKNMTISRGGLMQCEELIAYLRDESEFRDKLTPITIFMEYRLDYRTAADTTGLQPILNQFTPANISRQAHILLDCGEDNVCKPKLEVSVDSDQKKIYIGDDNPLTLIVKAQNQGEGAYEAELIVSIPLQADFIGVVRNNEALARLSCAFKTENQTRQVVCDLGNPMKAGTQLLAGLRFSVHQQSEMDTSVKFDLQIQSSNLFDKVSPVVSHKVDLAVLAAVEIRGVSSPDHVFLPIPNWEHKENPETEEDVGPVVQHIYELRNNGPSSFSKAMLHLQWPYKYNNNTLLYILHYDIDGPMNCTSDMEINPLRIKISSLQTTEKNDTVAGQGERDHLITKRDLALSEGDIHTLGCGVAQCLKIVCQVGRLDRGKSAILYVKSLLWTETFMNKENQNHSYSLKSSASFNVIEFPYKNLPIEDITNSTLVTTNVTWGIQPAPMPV
Chain of αvβ3 (P05106 27-718): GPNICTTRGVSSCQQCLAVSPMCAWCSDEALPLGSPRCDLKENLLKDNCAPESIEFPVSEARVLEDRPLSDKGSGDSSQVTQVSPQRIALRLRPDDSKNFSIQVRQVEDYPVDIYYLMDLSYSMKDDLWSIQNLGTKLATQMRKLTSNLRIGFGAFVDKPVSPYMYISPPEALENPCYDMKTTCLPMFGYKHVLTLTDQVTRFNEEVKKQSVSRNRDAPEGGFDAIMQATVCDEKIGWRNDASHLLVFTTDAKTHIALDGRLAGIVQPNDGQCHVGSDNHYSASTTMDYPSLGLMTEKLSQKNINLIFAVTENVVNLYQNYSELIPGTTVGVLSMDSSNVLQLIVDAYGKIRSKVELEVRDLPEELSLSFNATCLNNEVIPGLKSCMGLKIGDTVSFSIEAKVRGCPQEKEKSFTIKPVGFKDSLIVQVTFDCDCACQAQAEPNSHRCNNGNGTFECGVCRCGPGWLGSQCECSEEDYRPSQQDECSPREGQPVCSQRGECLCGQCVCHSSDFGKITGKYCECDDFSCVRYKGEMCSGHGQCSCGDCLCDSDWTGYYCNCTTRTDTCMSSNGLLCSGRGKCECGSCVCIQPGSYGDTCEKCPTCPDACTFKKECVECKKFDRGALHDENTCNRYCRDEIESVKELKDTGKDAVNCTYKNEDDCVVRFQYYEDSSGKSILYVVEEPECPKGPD
Chain of αvβ6 (P06756 31-992): as the sequence (P06756 31-992) above
Chain of αvβ6 (P18564 22-707): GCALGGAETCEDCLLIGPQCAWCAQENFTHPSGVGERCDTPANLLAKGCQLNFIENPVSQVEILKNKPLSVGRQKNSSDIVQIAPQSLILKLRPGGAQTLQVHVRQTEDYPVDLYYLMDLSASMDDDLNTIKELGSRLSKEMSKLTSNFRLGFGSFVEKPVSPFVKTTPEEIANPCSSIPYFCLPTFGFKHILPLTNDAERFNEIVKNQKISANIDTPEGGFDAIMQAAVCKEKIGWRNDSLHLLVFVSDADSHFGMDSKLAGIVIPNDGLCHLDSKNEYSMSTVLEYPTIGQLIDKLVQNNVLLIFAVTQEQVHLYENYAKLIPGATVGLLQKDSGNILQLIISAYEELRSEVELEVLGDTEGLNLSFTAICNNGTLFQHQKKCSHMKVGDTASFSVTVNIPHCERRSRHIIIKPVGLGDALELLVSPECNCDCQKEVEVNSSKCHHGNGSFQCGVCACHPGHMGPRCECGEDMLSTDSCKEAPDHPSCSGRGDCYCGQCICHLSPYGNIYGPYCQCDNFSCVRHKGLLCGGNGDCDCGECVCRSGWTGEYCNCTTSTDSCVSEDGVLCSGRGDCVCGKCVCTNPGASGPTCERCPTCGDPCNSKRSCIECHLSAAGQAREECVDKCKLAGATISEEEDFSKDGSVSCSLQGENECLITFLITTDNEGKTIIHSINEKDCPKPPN
Chain of αvβ8 (P06756 31-992): as the sequence (P06756 31-992) above
Chain of αvβ8 (P26012 43-684): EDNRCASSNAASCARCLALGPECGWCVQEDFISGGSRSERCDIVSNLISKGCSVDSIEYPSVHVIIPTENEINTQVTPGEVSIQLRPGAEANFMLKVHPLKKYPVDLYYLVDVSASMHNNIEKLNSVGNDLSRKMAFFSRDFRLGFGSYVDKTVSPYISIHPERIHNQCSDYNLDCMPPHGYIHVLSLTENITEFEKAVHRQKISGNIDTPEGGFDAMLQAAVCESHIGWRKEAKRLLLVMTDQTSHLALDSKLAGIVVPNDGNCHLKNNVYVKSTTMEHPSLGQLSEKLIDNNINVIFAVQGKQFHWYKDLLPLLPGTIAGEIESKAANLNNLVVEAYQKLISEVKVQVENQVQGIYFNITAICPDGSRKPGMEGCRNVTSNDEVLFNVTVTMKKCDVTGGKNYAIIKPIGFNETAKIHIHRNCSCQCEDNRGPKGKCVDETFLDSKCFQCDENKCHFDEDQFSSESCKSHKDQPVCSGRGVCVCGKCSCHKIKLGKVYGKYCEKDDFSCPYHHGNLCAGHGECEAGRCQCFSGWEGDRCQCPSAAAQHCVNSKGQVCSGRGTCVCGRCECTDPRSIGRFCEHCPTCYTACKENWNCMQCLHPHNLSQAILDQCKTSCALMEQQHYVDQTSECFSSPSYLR

Compound `O=C(O)CC(CCCCCCc1ccc2c(n1)NCCC2)c1ccc(OC(F)F)nc1` (stereo not shown) [Compound A3, 3-(6-(difluoromethoxy)pyridin-3-yl)-9-(5,6,7,8-tetrahydro-1,8-naphthyridin-2-yl)nonanoic acid] has an IC50 [1] of 18.2 nM, a αvβ8/αvβ6 [1] of 4.37 and an IC50 [2] of 79.3 nM. For the same compound, the IC50 [3] was 0.57 nM.

`O=C(O)CC(CCCCCCc1ccc2c(n1)NCCC2)c1cnc2ccc(F)cc2c1` (stereo not shown) [Compound A4, 3-(6-fluoroquinolin-3-yl)-9-(5,6,7,8-tetrahydro-1,8-naphthyridin-2-yl)nonanoic acid] was tested, and the IC50 [1] was 5.69 nM, the αvβ8/αvβ6 [1] was 3.75 and the IC50 [2] was 21.4 nM. It also gave an IC50 [3] of 1.4 nM.

Work on `O=C(O)CC(CCCCCCc1ccc2c(n1)NCCC2)c1cnc2cc(F)ccc2c1` (stereo not shown) [Compound A5, 3-(7-fluoroquinolin-3-yl)-9-(5,6,7,8-tetrahydro-1,8-naphthyridin-2-yl)nonanoic acid] yielded an IC50 [1] of 9.97 nM, a αvβ8/αvβ6 [1] of 6.41 and an IC50 [2] of 63.9 nM. For the same compound, the IC50 [3] was 65.7 nM.

Compound `O=C(O)CC(CCCCCCc1ccc2c(n1)NCCC2)c1ccc(Cl)c(C(F)(F)F)c1` (stereo not shown) [Compound A23, 3-(4-chloro-3-(trifluoromethyl)phenyl)-9-(5,6,7,8-tetrahydro-1,8-naphthyridin-2-yl)nonanoic acid] has an IC50 [1] of 14.8 nM, a αvβ8/αvβ6 [1] of 10.18 and an IC50 [2] of 151 nM. It also gave an IC50 [3] of 4.3 nM.
